# From the RepoRT retention time repository
# Experiment: HILIC, Waters ACQUITY UPLC BEH Amide, 100 × 2.1 mm, 1.7 µm; A: water + 0.125% formic acid + 10 mM ammonium formate; B: 5% water + 95% acetonitrile + 0.125% formic acid + 10 mM ammonium formate; gradient (min/%B) 0/100 2/100 7.7/70 9.5/40 10.25/30 12.75/100 17/100
# Settings: stereoisomer not certain
row,LC retention time,Structure (SMILES)
1,6.99 min,CCCCC(N)C(=O)O (centres undefined) [Norleucine]
2,6.4 min,CNc1nc2c(ncn2C2OC(CO)C(O)C2O)c(=O)[nH]1 (centres undefined) [N2-Methylguanosine]
3,1.22 min,Nc1ccccc1O [2-Aminophenol]
4,1.28 min,O=C(O)CCc1c[nH]c2ccccc12 [3-Indolepropionic acid]
5,3.4 min,Nc1ccn(C2CSC(CO)O2)c(=O)n1 (centres undefined) [Lamivudine]
6,1.25 min,CCCc1nc2c(C)cc(-c3nc4ccccc4n3C)cc2n1Cc1ccc(-c2ccccc2C(=O)O)cc1 [Telmisartan]
7,2.13 min,Cc1ccc(O)c(C(CCN(C(C)C)C(C)C)c2ccccc2)c1 (centres undefined) [Tolterodine]
8,3.24 min,COC(=O)CC(O)(CCCC(C)(C)O)C(=O)OC1C(OC)=CC23CCCN2CCc2cc4c(cc2C13)OCO4 (centres undefined) [Homoharringtonine]
9,7.68 min,CNC(C(=O)O)C(C)O (centres undefined) [N-Methylthreonine]
10,3.18 min,O=C(O)c1cc(O)ccc1O [Gentisinic acid]
11,10.2 min,Oc1cc(O)c2c(c1)OC(c1cc(O)c(O)c(O)c1)C(O)C2 (centres undefined) [Epigallocatechin]
12,4.7 min,CC1OC(Oc2c(-c3ccc(O)c(O)c3)oc3cc(O)cc(O)c3c2=O)C(O)C(O)C1O (centres undefined) [Quercetin-3-ramnoside]
13,0.96 min,CC(C)c1ccc2c(c1)c(SC(C)(C)C)c(CC(C)(C)C(=O)O)n2Cc1ccc(Cl)cc1 [MK-886]
14,4.74 min,COc1ccc(-c2oc3c(CC=C(C)C)c(OC4OC(CO)C(O)C(O)C4O)cc(O)c3c(=O)c2OC2OC(C)C(O)C(O)C2O)cc1 (centres undefined) [Icarin]
15,5.72 min,COC1C(O)C(CO)OC1n1cnc2c(=O)[nH]c(N)nc21 (centres undefined) [2'-O-Methylguanosine]
16,0.97 min,CS(=O)(=O)c1ccc(C2=C(c3ccccc3)C(=O)OC2)cc1 [Rofecoxib]
17,1.69 min,O=C(CCNNC(=O)c1ccncc1)NCc1ccccc1 [Nialamide]
18,8.62 min,[NH3+]CC(=O)N1CCCC1C(=O)[O-] (centres undefined) [Gly-Pro]
19,1.48 min,Nc1c(O)cccc1C(=O)O [3-Hydroxyanthranilic acid]
20,2.25 min,CC(CN(C)C)CN1c2ccccc2CCc2ccccc21 (centres undefined) [Trimipramine]
21,4.24 min,CCOC(=O)C1=C(COCCN)NC(C)=C(C(=O)OC)C1c1ccccc1Cl (centres undefined) [Amlodipine]

row,LC retention time,Structure (SMILES)
1,2.74 min,OCCN1CCN(CCCN2c3ccccc3Sc3ccc(C(F)(F)F)cc32)CC1 [Fluphenazine]
2,1.7 min,NC(=O)c1cccnc1 [Nicotinamide]
3,9.75 min,O=P(O)(O)OCC(O)C(O)C(O)C(O)CO (centres undefined) [Sorbitol-6-phosphate]
4,7.62 min,CC(O)CC(=O)OC(CC(=O)[O-])C[N+](C)(C)C (centres undefined) [3-Hydroxybutyrylcarnitine]
5,8.14 min,O=C(O)C1CC(O)CN1 (centres undefined) [Hydroxyproline]
6,7.67 min,CC(=O)NC(CCC(=O)O)C(=O)O (centres undefined) [N-Acetylglutamic acid]
7,3.14 min,O=C1CCc2ccc(OCCCCN3CCN(c4cccc(Cl)c4Cl)CC3)cc2N1 [Aripiprazole]
8,7.1 min,C[N+]1(C)CCCC1C(=O)O (centres undefined) [Stachydrine]
9,7.49 min,Nc1ccc(C(=O)O)cc1 [4-Aminobenzoic acid]
10,1.7 min,COc1ccc(CN2CCN(C(c3ccc(F)cc3)c3ccc(F)cc3)CC2)c(OC)c1OC [Lomerizine]
11,2.66 min,CNCCCC12CCC(c3ccccc31)c1ccccc12 [Maprotiline]
12,7.37 min,CSCCC(N)C(=O)O (centres undefined) [Methionine]
13,3.5 min,CC(C)(CO)C(O)C(=O)NCCC(=O)O (centres undefined) [Pantothenic acid]
14,1.17 min,CC(C)(C)NC(=O)C1CCC2C3CCC4NC(=O)C=CC4(C)C3CCC12C (centres undefined) [Finasteride]
15,8.05 min,CC(C)C(NC(=O)CN)C(=O)O (centres undefined) [Gly-val]
16,9.43 min,Nc1nc2c(ncn2C2CC(OP(=O)(O)O)C(CO)O2)c(=O)[nH]1 (centres undefined) [2'-Deoxyguanosine 3'-monophosphate]
17,6.98 min,NCCCCNCCCN [Spermidine]
18,2.26 min,CC(=O)NCCCC(=O)O [4-Acetamidobutyric acid]
19,1.54 min,Cn1c(=O)c2[nH]cnc2n(C)c1=O [Theophylline]
20,6.98 min,Nc1ccccc1C(=O)CC(N)C(=O)O (centres undefined) [Kynurenine]
21,7.62 min,"Nc1ncnc2c1ncn2C1OC2COP(=O)(O)OC2C1O (centres undefined) [Adenosine 3',5'-cyclic monophosphate]"

row,LC retention time,Structure (SMILES)
1,9.51 min,NC(N)=NCCCC(N)C(=O)N1CCCC1C(=O)O (centres undefined) [Arg-Pro]
2,3.69 min,O=C(O)C=Cc1cnc[nH]1 [Urocanic acid]
3,1.6 min,Cc1[nH]c(=O)c(C#N)cc1-c1ccncc1 [Milrinone]
4,1.8 min,CCC(C)C(=O)OC1CC(O)C=C2C=CC(C)C(CCC(O)CC(O)CC(=O)O)C21 (centres undefined) [Pravastatin]
5,4.37 min,CCN1CCCC1CNC(=O)c1cc(S(N)(=O)=O)ccc1OC (centres undefined) [Levosulpiride]
6,1.22 min,CCCSc1ccc2nc(NC(=O)OC)[nH]c2c1 [Albendazole]
7,0.89 min,CCCCCCCCCCCC(CC1OC(=O)C1CCCCCC)OC(=O)C(CC(C)C)NC=O (centres undefined) [Orlistat]
8,4.97 min,Cc1cccc(C)c1NC(=O)C(C)N (centres undefined) [Tocainide]
9,7.4 min,NCc1[nH]cc(CCC(=O)O)c1CC(=O)O [Porphobilinogen]
10,2.4 min,O=c1cc[nH]c(=O)[nH]1 [Uracil]
11,9.54 min,NCCC(=O)NC(Cc1cnc[nH]1)C(=O)O (centres undefined) [Carnosine]
12,1.24 min,COc1ccc2[nH]cc(CCNC(C)=O)c2c1 [Melatonin]
13,5.45 min,CC1CNc2c(cccc2S(=O)(=O)NC(CCCN=C(N)N)C(=O)N2CCC(C)CC2C(=O)O)C1 (centres undefined) [Argatroban]
14,0.98 min,O=C1Nc2ccc(Cl)cc2C(C#CC2CC2)(C(F)(F)F)O1 (centres undefined) [Efavirenz]
15,2.69 min,Nc1nc(Cl)nc2c1ncn2C1OC(CO)C(O)C1O (centres undefined) [2-Chloroadenosine]
16,1.13 min,NC(=O)N1c2ccccc2CC(=O)c2ccccc21 [Trileptal]
17,5.23 min,N=c1ccc2nc3ccc(N)cc3sc-2c1 [Thionin]
18,5.36 min,Cc1ccc(NC(=O)c2ccc(CN3CCN(C)CC3)cc2)cc1Nc1nccc(-c2cccnc2)n1 [Imatinib]
19,1.12 min,NC(=O)C=CC(=O)O [Maleamic acid]
20,3.21 min,Cn1c(NCCN(CCO)CCCc2ccc([N+](=O)[O-])cc2)cc(=O)n(C)c1=O [Nifekalant]
21,7.79 min,C=CC1=C(C(=O)O)N2C(=O)C(NC(=O)C(=NOCC(=O)O)c3csc(N)n3)C2SC1 (centres undefined) [Cefixime]

row,LC retention time,Structure (SMILES)
1,4.31 min,O=c1cnn(C2OC(CO)C(O)C2O)c(=O)[nH]1 (centres undefined) [6-Azuridine]
2,1.01 min,CCOC(=O)C(C)Oc1ccc(Oc2nc3ccc(Cl)cc3o2)cc1 (centres undefined) [Fenoxaprop-P-ethyl]
3,6.6 min,CC1OC(OCC2OC(Oc3c(-c4ccc(O)c(O)c4)oc4cc(O)cc(O)c4c3=O)C(O)C(O)C2O)C(O)C(O)C1O (centres undefined) [Rutin]
4,7.11 min,CN1CCCC1C(=O)O (centres undefined) [N-Methylproline]
5,6.92 min,NC(Cc1c[nH]c2ccccc12)C(=O)O (centres undefined) [Tryptophan]
6,6.41 min,CCC(=O)OC(CC(=O)[O-])C[N+](C)(C)C (centres undefined) [Propionylcarnitine]
7,2.44 min,COc1cc2c(cc1OC)C(=O)C(CC1CCN(Cc3ccccc3)CC1)C2 (centres undefined) [Donepezil]
8,5.08 min,CC(=O)Nc1ccn(C2OC(CO)C(O)C2O)c(=O)n1 (centres undefined) [N-Acetylcytidine]
9,9.26 min,CC(=O)NC1C(O)CC(O)(C(=O)O)OC1C(O)C(O)CO (centres undefined) [N-Acetylneuraminic acid]
10,3.63 min,CCCCCCCCCCCC(=O)OC(CC(=O)[O-])C[N+](C)(C)C [Lauroyl-L-carnitine]
11,2.79 min,COc1ccccc1OCC(O)CN1CCN(CC(=O)Nc2c(C)cccc2C)CC1 (centres undefined) [Ranolazine]
12,8.74 min,NC(=O)NCCCC(N)C(=O)O (centres undefined) [Citrulline]
13,1.08 min,O=c1ccc2ccccc2o1 [Coumarin]
14,1.16 min,COC(=O)Nc1nc2ccc(C(=O)c3ccc(F)cc3)cc2[nH]1 [Flubendazole]
15,2.04 min,COC1C(O)CC(=O)OC(C)CC=CC=CC(O)C(C)CC(CC=O)C1OC1OC(C)C(OC2CC(C)(O)C(OC(=O)CC(C)C)C(C)O2)C(N(C)C)C1O (centres undefined) [Kitasamycin]
16,1.15 min,Oc1cc(O)cc(O)c1 [Phloroglucinol]
17,2.85 min,O=C(O)CCCCC1SCC2NC(=O)NC21 (centres undefined) [Biotin]
18,4.83 min,CC(=O)NC(C)C(=O)O (centres undefined) [N-Acetylalanine]

row,Structure (SMILES),LC retention time
1,CN1C2CCC1CC(OC(=O)C(CO)c1ccccc1)C2 (centres undefined) [Atropine],4.32 min
2,CCCC(C)(COC(N)=O)COC(N)=O [Meprobamate],1.25 min
3,NCCc1ccc(O)cc1 [Tyramine],5.58 min
4,CCOC(=O)C1C(OC(=O)c2ccccc2)CC2CCC1N2C (centres undefined) [Cocaethylene],2.12 min
5,CN1C(=O)CC(=O)N(c2ccccc2)c2cc(Cl)ccc21 [Clobazam],1.1 min
6,CCCCCC=CCC=CCC=CCC=CCCCC(=O)NCCc1ccc(O)c(O)c1 [Arachidonyl dopamine],1.14 min
7,CC(O)(CS(=O)(=O)c1ccc(F)cc1)C(=O)Nc1ccc(C#N)c(C(F)(F)F)c1 (centres undefined) [Bicalutamide],0.99 min
8,COC(=O)C1C(OC(=O)c2ccccc2)CC2CCC1N2C (centres undefined) [Cocaine],2.2 min
